Reference: article PMC8698320, “Inhibition of MurA Enzyme from Escherichia coli and Staphylococcus aureus by Diterpenes from Lepechinia meyenii and Their Synthetic Analogs” (Antibiotics, 2021)
Converted amounts (≈) assume the structure as drawn. “And” between values parts separate entries of the source, which are not always exact repeats. Identical values can stand only once. Like-named read-outs stand apart in the source and are kept apart here.

Key:
[1] = biological target: T1, Staphylococcus aureus MurA (Staphylococcus aureus, UniProt Q931H5); experiment: biochemical; settings: for remaining activity at 100 µM: 10 min
T1 construct: made in house; host or cells: E. coli
T1 sequence (Q931H5 1-421): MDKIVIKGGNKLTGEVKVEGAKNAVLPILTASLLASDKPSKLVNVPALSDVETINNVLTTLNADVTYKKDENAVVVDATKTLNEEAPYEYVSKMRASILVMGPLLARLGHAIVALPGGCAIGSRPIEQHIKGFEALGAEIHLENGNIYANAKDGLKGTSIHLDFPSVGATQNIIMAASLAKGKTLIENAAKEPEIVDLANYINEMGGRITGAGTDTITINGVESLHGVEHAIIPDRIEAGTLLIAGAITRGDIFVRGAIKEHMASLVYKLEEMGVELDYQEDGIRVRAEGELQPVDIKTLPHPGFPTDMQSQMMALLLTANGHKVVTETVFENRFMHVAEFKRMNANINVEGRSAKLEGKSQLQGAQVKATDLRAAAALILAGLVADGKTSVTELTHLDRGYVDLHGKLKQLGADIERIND
Description: (§1) Polymyxin, UDP-GlcNAc, D-Ala-D-Ala, PEP, ATP and Hepes were purchased from Sigma-Aldrich Co. (St Louis, MO, USA). UDP-MurNAc-L-Ala-D-Glu-m-DAP was obtained from BACWAN facility, School of Life Sciences, The University of Warwick, UK. MurA from E. coli and S. aureus were recombinant, expressed in E. coli, while MurF from E. coli and S. aureus were recombinant expressed in E. coli.
MurA inhibition was determined with the colorimetric malachite green method in which the release of orthophosphate generated during the reaction is measured. […] Time-dependent inhibition assays were also performed. MurA was preincubated with substrate UDP-GlcNAc and target compounds for 10 min at 37 °C, and then the reaction was started by the addition of the second substrate PEP, resulting in a mixture with a final volume of 50 µL as above described. MurF was preincubated with compounds for 10 min at 37 °C, and the reaction was started by the addition of the above-mentioned substrates to get a mixture with a final volume of 50 µL, as already described. In both experiments, after incubation for 15 min at 37 °C, the reaction was stopped by adding Biomol® reagent (100 µL, Enzo Life Sciences, Inc., Farmingdale, NY, USA). The absorbance was measured at 650 nm after 5 min in a microplate reader (Synergy H4). The final concentration of DMSO in the reaction mixture was 5% (v/v). Fosfomycin was used as a reference in MurA assay. The percentage of RA was calculated in comparison to negative controls containing only 5% DMSO. […] The results are expressed as mean ± standard error.

[2] = biological target: T2, Escherichia coli MurA (Escherichia coli, UniProt P0A749); experiment: MurA inhibition, colorimetric malachite green method; type: biochemical; settings: for remaining activity at 100 µM: 10 min, residual activity at 100 µM, read-out: RA % Escherichia coli MurA
T2 construct: made in house; host or cells: E. coli
Description: as §1
MurA inhibition was determined with the colorimetric malachite green method in which the release of orthophosphate generated during the reaction is measured. Briefly, 2.5 µL of each tested compound previously dissolved in DMSO at a concentration of […], were added in duplicate to 50 µL of the reaction mixture containing 50 mM HEPES pH 7.8, 0.005% Triton X-114, 200 µM UDP-GlcNAc, 100 µM PEP and purified MurA (200 nM) diluted in 50 mM Hepes at pH 7.8. The 50 µL reaction mixture for MurF inhibitory assay contained 50 mM Hepes pH 8.0, 50 mM MgCl2, 0.005% Triton X-114, 600 µM D-Ala-D-Ala, 100 µM UDP-MurNAc-L-Ala-D-Glu-m-DAP, 500 µM ATP and purified MurF (8 nM). Time-dependent inhibition assays were also performed. MurA was preincubated with substrate UDP-GlcNAc and target compounds for 10 min at 37 °C, and then the reaction was started by the addition of the second substrate PEP, resulting in a mixture with a final volume of 50 µL as above described. MurF was preincubated with compounds for 10 min at 37 °C, and the reaction was started by the addition of the above-mentioned substrates to get a mixture with a final volume of 50 µL, as already described. In both experiments, after incubation for 15 min at 37 °C, the reaction was stopped by adding Biomol® reagent (100 µL, Enzo Life Sciences, Inc., Farmingdale, NY, USA). The absorbance was measured at 650 nm after 5 min in a microplate reader (Synergy H4). The final concentration of DMSO in the reaction mixture was 5% (v/v). Fosfomycin was used as a reference in MurA assay. The percentage of RA was calculated in comparison to negative controls containing only 5% DMSO. […] The results are expressed as mean ± standard error.

[3] = tested on: E. coli (ATCC 25922); experiment: Antibacterial susceptibility testing, MIC by broth microdilution, alone or with polymyxin B; type: cell-based, Escherichia coli; settings: for MIC: Escherichia coli, read-out: MIC against E. coli; for MIC against E. coli with polymyxin B: with polymyxin B at sub-inhibitory concentration (half of the MIC, 0.49 µg/mL), permeabilized E. coli
Description: Overnight subcultures of the test organism carried out on plate count agar medium (PCA) were used.
After 24 h incubation at 37 °C with continuous shaking, absorbance was measured with an iMark micro-plate reader (Bio-Rad, Hercules, CA, USA) at 655 nm. Compound 1 was dissolved in DMSO, while compounds 4 and 6 were dissolved in ethanol or acetonitrile (ACN), respectively. Negative controls containing dissolution solvents at a final concentration of 2% or polymyxin B at 0.49 µg/mL were simultaneously carried out, and the growth was compared to the viability control, which contained only a culture medium. […] The large size of this glycopeptide antibiotic avoids its entrance into Gram-negative bacteria, while the addition of polymyxin B overcomes this inconvenience.

[4] = tested on: methicillin-sensitive and resistant Staphylococcus aureus (MSSA and MRSA); settings: growth curves of treated MSSA and MRSA; cited from earlier work
[5] = time of preincubation: 10 min, read-out: IC50 Staphylococcus aureus MurA (converted)
[6] = time of preincubation: 10 min, read-out: IC50 Escherichia coli MurA (converted)
[7] = ATCC25922, compound alone, 24 h, 37 °C, Mueller–Hinton broth
[8] = IC50 Staphylococcus aureus MurA, time of preincubation: 10 min
[9] = IC50 Escherichia coli MurA, time of preincubation: 10 min
[10] = residual activity at 100 µM, time of preincubation: 10 min, read-out: RA % Staphylococcus aureus MurA

T2 sequence (P0A749 whole entry): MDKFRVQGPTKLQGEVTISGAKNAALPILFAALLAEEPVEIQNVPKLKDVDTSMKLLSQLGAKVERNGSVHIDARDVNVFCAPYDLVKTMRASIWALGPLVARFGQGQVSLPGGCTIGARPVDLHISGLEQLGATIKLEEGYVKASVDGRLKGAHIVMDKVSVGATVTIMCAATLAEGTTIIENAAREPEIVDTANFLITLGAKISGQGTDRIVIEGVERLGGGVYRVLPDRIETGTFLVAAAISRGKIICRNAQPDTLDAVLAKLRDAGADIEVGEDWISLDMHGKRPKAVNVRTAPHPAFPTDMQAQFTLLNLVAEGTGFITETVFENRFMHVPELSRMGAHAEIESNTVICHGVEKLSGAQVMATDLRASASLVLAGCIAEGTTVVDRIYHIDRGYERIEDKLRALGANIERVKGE

For `CC(C)c1cc2c(c(O)c1O)[C@@]13CCCC(C)(C)[C@@H]1C[C@@H]2OC3=O` [Compound 1, carnosol], the IC50 ([1]; time of preincubation = 0 min, read-out: IC50 Staphylococcus aureus MurA (converted)) was 61 µM, the IC50 [1, 5] was 1.1 µM and the IC50 ([2]; time of preincubation = 0 min, read-out: IC50 Escherichia coli MurA (converted)) was 66 µM. For the same compound, the IC50 [2, 6] was 2.8 µM, the MIC [3, 7] was greater than 250 µg/mL and the “MIC against E. coli with polymyxin B” value [3] was 125 µg/mL.
`CC(C)c1cc2c(c(O)c1O)[C@@]13CCCC(C)(C)[C@@H]1[C@H](OC3=O)[C@H]2O` [Compound 2, rosmanol] showed an IC50 [1, 5] of 5.7 µM and an IC50 [2, 6] of 12.9 µM.
With `CC(C)c1cc2c(c(O)c1O)[C@@]1(C(=O)O)CCCC(C)(C)[C@@H]1CC2` [Compound 3, carnosic acid] the IC50 [1, 8] was 12 µM and 12.3 µM and the IC50 [2, 9] was 25 µM and 25.1 µM.
In the case of `COC(=O)[C@]12CCCC(C)(C)[C@@H]1CCc1cc(C(C)C)c(O)c(O)c12` [Compound 4, 20-methyl carnosate], the remaining activity at 100 µM ([1]; read-out: RA % Staphylococcus aureus MurA, residual activity at 100 µM, time of preincubation: 10 min) is reported as 0 to 28%, the IC50 ([1]; IC50 Staphylococcus aureus MurA, time of preincubation = 0 min) is reported as 67 µM and the IC50 [1, 8] is reported as 3.4 µM. For the same compound, the remaining activity at 100 µM ([2]; time of preincubation: 10 min) was 0 to 28%, the IC50 ([2]; IC50 Escherichia coli MurA, time of preincubation = 0 min) was 48 µM and the IC50 [2, 9] was 2.8 µM. The MIC [3, 7] was greater than 250 µg/mL and the “MIC against E. coli with polymyxin B” value [3] was 3.9 µg/mL.
In the case of `CC(C)c1cc2c3c(c1O)OC(=O)[C@@]31CCCC(C)(C)[C@@H]1CC2` [Compound 6, carnosic acid-γ-lactone], the IC50 [1, 5] is reported as 7.9 µM, the IC50 [2, 9] is reported as 4.8 µM and the MIC [3, 7] is reported as greater than 250 µg/mL. The “MIC against E. coli with polymyxin B” value [3] was 125 µg/mL.
With `CC(C)c1cc2c(cc1O)[C@@]1(C)CCC[C@@](C)(C(=O)O)[C@@H]1CC2` [Compound 9, 12-hydroxy-dehydroabietic acid] the IC50 [1, 8] was 55.2 µM and the IC50 [2, 6] was 49.4 µM.
For `COC(=O)[C@]1(C)CCC[C@]2(C)c3cc(O)c(/C(C)=N/O)cc3CC[C@@H]12` [Compound 12], the remaining activity at 100 µM [1, 10] is listed as 72 to 100% and the “delay/reduction in the growth rate of MSSA and MRSA, until time” value [4] is listed as “up to 6 h”.
For `CC/C(=N\O)c1cc2c(cc1O)[C@@]1(C)CCC[C@@](C)(C(=O)OC)[C@@H]1CC2` [Compound 13], the remaining activity at 100 µM [1, 10] was 72 to 100%.
In the case of `COC(=O)[C@]1(C)CCC[C@]2(C)c3cc(O)c(/C(C)=N/O)cc3/C(=N/O)C[C@@H]12` [Compound 14], the remaining activity at 100 µM [1, 10] is reported as 72 to 100%.
With `CN[C@H](CC(C)C)C(=O)N[C@H]1C(=O)N[C@@H](CC(N)=O)C(=O)N[C@H]2C(=O)N[C@H]3C(=O)N[C@H](C(=O)N[C@H](C(=O)O)c4cc(O)cc(O)c4-c4cc3ccc4O)[C@H](O)c3ccc(c(Cl)c3)Oc3cc2cc(c3O[C@@H]2O[C@H](CO)[C@@H](O)[C@H](O)[C@H]2O[C@H]2C[C@](C)(N)[C@H](O)[C@H](C)O2)Oc2ccc(cc2Cl)[C@H]1O` [Vancomycin, vancomycin, reference compound] the MIC ([3]; ATCC25922, 24 h) was 250 µg/mL (≈ 173 µM) and the “MIC against E. coli with polymyxin B” value [3] was 62.5 µg/mL.
In the case of `C[C@@H]1O[C@@H]1P(=O)(O)O` [fosfomycin, reference compound], the remaining activity at 100 µM [1, 10] is reported as 0%, the IC50 [1, 5] is reported as 0.3 µM and the remaining activity at 100 µM ([2]; time of preincubation: 10 min) is reported as 0%. The IC50 [2, 9] was 0.21 µM.
